Literature values, collected in patent US6153225A (Elan Pharma International Limited, priority 1998, dated 2000).
Counter-ions that a name gives are not always drawn.

Compound	remission of acute and very high intensity pain (naproxen sodium salt)	pain relief compared with aspirin (menstrual cramps, toothaches, minor arthritis, injuries with inflammation)
COc1ccc2cc([C@H](C)C(=O)O)ccc2c1 [naproxen sodium salt]	rapid and sustained remission	
COc1ccc2cc([C@H](C)C(=O)O)ccc2c1 [Naproxen, d-2(6-methoxy-2-naphthyl)propionic acid]		more potent pain reliever than aspirin
